In PMC9192788, “Identification of a D-galacturonate reductase efficiently using NADH as a cofactor” (Biotechnology Reports, 2022) one finds Km data, which are given here for two molecules.

Broadly, the Km is the concentration of substrate that gives half-maximal velocity.

Assay [1] concerns T1, Gaa1 (E. gracilis D-galacturonate reductase).
T1 construct: full-length 420 aa, C-terminal 6xHis tag kept, synthetic codon-optimized gene expressed in S. cerevisiae, IMAC purified, ~45 kDa; primer-encoded N-terminus MVDVLMVGT
Kind of assay: NAD(P)H oxidation, absorbance at […] nm. In kind it is biochemical, Euglena gracilis. Particulars: 1 mM NADPH, 0.1 M Na-phosphate pH 7, 30°C.

Assay [2] shares this test system. Kind of assay: reverse reaction with NADP. The class given is biochemical, Euglena gracilis. Particulars: 1 mM NADP, 0.1 M Na-phosphate pH 7, 30°C. From the text:
reverse reaction with NADP on Gaa1 (E. gracilis D-galacturonate reductase)

Each structure is given as a SMILES string.

As for `O=C(O)[C@H]1OC(O)[C@H](O)[C@@H](O)[C@H]1O` (stereo partly drawn) [GalUA, D-galacturonate], the Michaelis-Menten constant (Km) in assay [1] was 300 µM.
As for `O=C(O)[C@@H](O)[C@H](O)[C@H](O)[C@@H](O)CO` [L-galA, L-galactonate], the Km in assay [2] worked out at 700 µM.
